Source: ChEMBL document CHEMBL1158059, “Oculatol, oculatolide, and A-nor sterols from the sponge Haliclona oculata” (J Nat Prod, 2006)
In brackets after ≈: the same amount, converted by molar mass.

Legend:
A549 = assay: Cytotoxicity against human A549 cells; assay type: functional, cell-based
Bel-7402 = assay: Cytotoxicity against human Bel-7402 cells; assay type: functional, cell-based
Acetylcholinesterase = Acetylcholinesterase (Homo sapiens, UniProt P22303); assay: Inhibition of AChE
[1] = biological target: T1, Prostaglandin G/H synthase 2 (Homo sapiens, UniProt P35354); assay: Inhibition of COX2
T1 sequence (P35354 whole entry): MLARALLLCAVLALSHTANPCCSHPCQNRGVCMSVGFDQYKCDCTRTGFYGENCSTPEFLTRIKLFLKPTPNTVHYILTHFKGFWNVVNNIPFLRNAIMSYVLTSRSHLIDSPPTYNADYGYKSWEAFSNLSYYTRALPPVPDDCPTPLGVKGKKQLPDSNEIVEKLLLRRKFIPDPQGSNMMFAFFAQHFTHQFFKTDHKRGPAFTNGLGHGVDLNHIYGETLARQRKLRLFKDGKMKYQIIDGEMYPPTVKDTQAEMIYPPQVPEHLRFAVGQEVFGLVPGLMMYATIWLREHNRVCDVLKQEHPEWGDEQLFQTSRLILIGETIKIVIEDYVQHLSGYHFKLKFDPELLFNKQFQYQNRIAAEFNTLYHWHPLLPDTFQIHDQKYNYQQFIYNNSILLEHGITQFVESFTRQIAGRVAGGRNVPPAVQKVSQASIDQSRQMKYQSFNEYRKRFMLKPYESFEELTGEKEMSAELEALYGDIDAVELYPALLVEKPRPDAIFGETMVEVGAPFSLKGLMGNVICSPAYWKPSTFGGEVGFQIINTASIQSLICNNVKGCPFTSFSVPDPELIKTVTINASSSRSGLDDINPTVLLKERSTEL

HL-60 = assay: Cytotoxicity against human HL-60 cells; assay type: functional, cell-based
HeLa = assay: Cytotoxicity against human HeLa cells; assay type: functional, cell-based
[2] = biological target: T2, Tyrosine-protein phosphatase non-receptor type 1 (Homo sapiens, UniProt P18031); assay: Inhibition of PTP1B
T2 sequence (P18031 whole entry): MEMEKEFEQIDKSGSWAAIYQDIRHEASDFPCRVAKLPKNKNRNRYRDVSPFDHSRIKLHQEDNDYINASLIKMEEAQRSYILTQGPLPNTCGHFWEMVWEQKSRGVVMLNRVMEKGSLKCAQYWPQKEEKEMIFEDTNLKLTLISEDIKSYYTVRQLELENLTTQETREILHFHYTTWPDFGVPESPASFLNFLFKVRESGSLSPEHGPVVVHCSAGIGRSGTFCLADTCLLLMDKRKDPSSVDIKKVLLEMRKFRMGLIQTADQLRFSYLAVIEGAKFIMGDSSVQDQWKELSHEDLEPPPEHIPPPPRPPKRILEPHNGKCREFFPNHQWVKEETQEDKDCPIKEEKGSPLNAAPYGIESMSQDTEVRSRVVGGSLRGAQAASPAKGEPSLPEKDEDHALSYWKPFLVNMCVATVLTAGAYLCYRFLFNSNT

Sequence of Acetylcholinesterase (P22303 whole entry): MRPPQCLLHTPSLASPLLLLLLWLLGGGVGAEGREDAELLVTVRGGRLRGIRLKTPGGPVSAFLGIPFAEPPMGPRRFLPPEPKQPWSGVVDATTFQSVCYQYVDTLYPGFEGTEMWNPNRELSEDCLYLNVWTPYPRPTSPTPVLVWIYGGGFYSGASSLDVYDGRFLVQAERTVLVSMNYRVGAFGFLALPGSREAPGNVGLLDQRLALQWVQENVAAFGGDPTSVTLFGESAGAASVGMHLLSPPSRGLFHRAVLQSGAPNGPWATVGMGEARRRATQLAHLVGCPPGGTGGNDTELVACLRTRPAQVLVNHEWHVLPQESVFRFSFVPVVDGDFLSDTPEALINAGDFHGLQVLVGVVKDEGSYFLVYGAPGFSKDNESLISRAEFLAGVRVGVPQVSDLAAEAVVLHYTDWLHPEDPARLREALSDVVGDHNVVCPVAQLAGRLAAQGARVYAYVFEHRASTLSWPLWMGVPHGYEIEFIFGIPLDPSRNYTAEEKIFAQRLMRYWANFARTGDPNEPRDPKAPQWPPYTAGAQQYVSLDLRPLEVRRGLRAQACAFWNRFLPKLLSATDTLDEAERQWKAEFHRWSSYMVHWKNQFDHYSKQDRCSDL

C=C(CC[C@@H](C)[C@H]1CC[C@H]2[C@@H]3CC=C4C(=O)[C@](O)(C(=O)OCC)C[C@]4(C)[C@H]3CC[C@]12C)C(C)C
IC50 (A549): 0.47 µg/mL (≈ 0.999 µM) | IC50 (Bel-7402): 0.73 µg/mL (≈ 1.55 µM) | IC50 (Acetylcholinesterase): > 21.2 µM | IC50 [1]: > 21.2 µM | IC50 (HL-60): 0.32 µg/mL (≈ 0.68 µM) | IC50 (HeLa): > 10 µg/mL | IC50 [2]: > 21.2 µM
